Test results taken from patent US20120035187A1 (priority 2009, published 2012).
Read-outs that look alike come from different tables or passages of the source. Marks after values point to notes of the source that are not given here.

Legend:
PC12-HS cells [1] = conditions: 6-hydroxy dopa, 24 hours
Experimental: 6-Hydroxy dopa was used as a cytotoxic agent. Similarly as in Experiment 1, PC12-HS cells, which had been cultured in D-MEM medium supplemented with 10 v/v % FBS, were inoculated to 96-well microplates by 2×10^4/100 μl/well. […] Thereafter, the cells were fixed with 10% glutaraldehyde and the absorbance at 650 nm was measured by conventional dye-uptake method using methylene blue.

[2] = test system: C57BL/6J mice with cerebrovascular dementia; assay: Novelty object recognition test, mouse with cerebrovascular dementia (ligation of right common carotid artery); assay type: in vivo; conditions: for Object discrimination index: mice with ligation of right common carotid artery, NK-4 i.p. five days a week
PC12-HS cells [3] = test system: PC12-HS cells
Experimental: The cells were cultured with a serum-free medium as a nutrition-starvation-condition. PC12-HS cells were subjected to tests after stock cultured cells thereof were thawed and cultured with a D-MEM medium supplemented with 10% by volume of fetal bovine serum (FBS). […] As a control, cells were cultured with a NK-4 free D-MEM medium and, similarly as above, cultured after the addition of an ALAMAR BLUE solution commercialized by Trek Diagnostic Systems Inc., Ohio, USA, and measured for fluorescent intensity for each well. Relative values for cells in each well were determined when the fluorescent intensity for control was regarded as 100%, and the data are also shown in Table 1 as survival percentages (%) of cells in each well.

SAPK/JNK = assay: Phosphorylation of SAPK/JNK by hydrogen-peroxide-induced cell injury; assay type: cell-based
PC12-HS cells [4] = assay type: cell-based, rat
[5] = test system: intracellular cyclic adenosine monophosphate (AMP); assay: Increment of intracellular cyclic AMP; assay type: cell-based
APP Tg mouse [6] = assay: Passive avoidance test, APP transgenic mouse; assay type: in vivo; conditions: for Passive avoidance reaction: intraperitoneal, five times a week for 12 weeks
APP Tg mouse [7] = assay: Water maze test, APP transgenic mouse; assay type: in vivo; conditions: for Water maze test 1st day / Water maze test 2nd day / Water maze test 3rd day / Water maze test 4th day: time required for arriving the platform
[8] = test system: hamsters with cerebellar ataxia; assay: Concentration of glutamic acid in cerebrospinal fluid (CSF); assay type: in vivo, hamster; conditions: 10-weeks of age
Source text: (§1) Since NK-4 was confirmed to have a neurodegenerative inhibitory action in Experiment 1, hamsters with cerebellar ataxia (cerebellar ataxia is called “cerebellar A” and hamsters with cerebellar ataxia are called “hamsters with cerebellar A”, hereinafter) as a suitable model for human neurodegenerative diseases (e.g., spinal cerebellar degeneration) were subjected to examine the influence of NK-4 administration on their behaviors and brain tissues. Twenty-five hamsters with natural mutation (Nna1 inhibition), which are known to lose Purkinje's cells after three-weeks of age and then induce a spontaneous onset of kinetic motor ataxia after seven-weeks of age (see Akita K. et al., “J. Neurogenetics”, Vol. 21, pp. 19-29, 2007), had been fed at Hayashibara Biochemical Laboratories., Inc., Okayama, Japan, were randomly allocated to the test groups 1 to 5, five heads in each group, as shown in Table 2. Prior to the onset of cerebellar A (at three-weeks of age), PBS was started to administer to the hamsters in the test group 1 at a dose of 10 ml/kg/day. Prior to the onset of cerebellar A (at three-weeks of age), NK-4 was started to be administered to the hamsters in the test groups 2 to 4 at a daily dose of 20 μg/kg, 100 μg/kg or 500 μg/kg. “IGF-1, human, a product name of insulin-like growth factor, commercialized by Assaypro LLC, MO, USA. These administered ingredients were intraperitoneally administered daily to hamsters once a day up to 10-weeks of age. The degree of symptom of cerebellar A and the improvement effect on the symptom by NK-4 were evaluated with an index of improvement in motor coordination of hamsters by conducting once a week the later described rotarod test and the slant tolerance test. At the age of 10-weeks, the hamsters were subjected to counting the falling down frequency and extracted their brains, which were then histologically evaluated. In parallel, the concentration of glutamic acid in the bloods and cerebrospinal fluids (CSF) of the hamsters was assayed. As a test group 6, five normal hamsters, with the same age as the hamsters with cerebellar A used in the test groups 1 to 5, were provided and tested similarly as the hamsters with cerebellar A in such a manner of intraperitoneally administering PBS to them at a dose of 10 ml/kg/day once a day up to 10-weeks of age.
The content of glutamic acid, which is used for synthesizing gamma-amino butyric acid (GABA) as a main excitatory neurotransmitter and inhibitory neurotransmitter that regulate higher-order functions such as memory/learning in mammalian central nervous system, was assayed. In harvesting the brains from the above hamsters, they were blooded from their postcavas, followed by collecting CSF for use in the later described assay for glutamic acid concentration. […]

[9] = test system: hamsters with cerebellar ataxia; assay: Histological evaluation of cerebellum of hamsters with cerebellar ataxia; assay type: in vivo, hamster; conditions: 10-weeks of age; for Cerebellar volume (mm^3) / Number of Purkinje cells (cells) / Number of granular cells (cells/20000 μm^2): cerebellar ataxia hamsters; for Number of subject (head) with apparent demyelination in cerebellar white matter: five heads per group
Source text: as §1
Hamsters, 10-weeks of age, after completion of test on coordinated movement such as a confirmation of falling down frequency were intraperitoneally received 50 mg/kg pentobarbital, bled from their postcavas to let them die, and extracted their cerebra and cerebella, followed by fixing them with a 10% by volume of formalin solution. The resulting cerebra and cerebella were photographed with a digital camera apart from a prescribed high position and measured diameters in sagittal and horizontal directions for each photograph. The volumes of cerebra and cerebella were respectively determined by calculating with the formula, (length of sagittal direction)^2×(length of horizontal direction)×0.5; and the data from five heads in each group were averaged. The hamsters with cerebella A used in this experiment are known to reduce cell density of Purkinje's cells and granular cells. Cerebellar slices, which had been cut out in sagittal direction, were stained with hematoxylin-eosin stain, and microscopically observed to count the total number of Purkinje's cells within a Purkinje's cell layer ([…] I to X) and the number of granular cells per unit area, and to confirm subjects in which demyelination was observed within their cerebellar white matters. The results are in Table 5 in parallel.

[10] = i.p. five times a week for 12 weeks

Q: `CCN1C=CC(=CC=C(C=Cc2cc[n+](CC)c3ccccc23)c2cc[n+](CC)c3ccccc23)c2ccccc21.[I-].[I-]` [NK-4] was tested. Which “suppression of cytotoxicity by 6-hydroxy dopa (in words)” value (PC12-HS cells [1]) did it give?
A: significantly suppressed

Q: What about the “Survival-cell percentage (%)” value (PC12-HS cells [1]; compound 0.83 ng/ml) of the same compound?
A: 59 ± 3%

Q: What about the “Survival-cell percentage (%)” value (PC12-HS cells [1]; compound 3.3 ng/ml) of the same compound?
A: 65 ± 4%

Q: What about the “Survival-cell percentage (%)” value (PC12-HS cells [1]; compound 13 ng/ml) of the same compound?
A: 69 ± 6 %

Q: What about the “Survival-cell percentage (%)” value (PC12-HS cells [1]; compound 50 ng/ml) of the same compound?
A: 70 ± 6 %

Q: What about the “Survival-cell percentage (%)” value (PC12-HS cells [1]; compound 200 ng/ml) of the same compound?
A: 76 ± 3 %

Q: And the “Survival-cell percentage (%)” value (PC12-HS cells [1]; compound 800 ng/ml)?
A: 92 ± 4 %

Q: And the adverse effect ([2]; mice with cerebrovascular dementia, i.p. five days a week)?
A: No adverse effect

Q: And the Object discrimination index ([2]; On the 3rd week after operation)?
A: 0.51 ± 0.22

Q: What about the Object discrimination index ([2]; On the 4th week after operation) of the same compound?
A: 0.31 ± 0.20

Q: What about the “Survibal percentage of cells when admixed with cytotoxic factor (%) Nutrition starvation” value (“Survibal percentage … (%) Nutrition starvation” for short) (PC12-HS cells [3]; NK-4 500 ng/ml) of the same compound?
A: 78 ** %

Q: And the “Survibal percentage … (%) Nutrition starvation” value (PC12-HS cells [3]; NK-4 5000 ng/ml)?
A: 64 ** %

Q: And the “concentration required for protection action against nutrition starvation” value (PC12-HS cells [3]; PC12-HS cells)?
A: 500 ng/mL

Q: What about the “Survibal percentage … (%) Nutrition starvation” value (PC12-HS cells [3]; PC12-HS cells, FBS-free medium, 3 days, NK-4 50 ng/ml, control free of cytotoxic factor = 100) of the same compound?
A: 47%

Q: What about the “phosphorylation of SAPK/JNK” value (SAPK/JNK) of the same compound?
A: inhibits the phosphorylation of SAPK/JNK

Q: What about the “Survibal percentage of cells when admixed with cytotoxic factor (%) Hydrogen peroxide” value (shortened to “Survibal percentage … (%) Hydrogen peroxide”) (PC12-HS cells [4]; NK-4 50 ng/ml) of the same compound?
A: 50%

Q: And the “Survibal percentage … (%) Hydrogen peroxide” value (PC12-HS cells [4]; NK-4 500 ng/ml)?
A: 50%

Q: What about the “Survibal percentage … (%) Hydrogen peroxide” value (PC12-HS cells [4]; NK-4 5000 ng/ml) of the same compound?
A: 70 ** %

Q: What about the “Survibal percentage … (%) Hydrogen peroxide” value (PC12-HS cells [4]; NK-4 50000 ng/ml) of the same compound?
A: 90 ** %

Q: And the “concentration required for protection action against hydrogen peroxide injury” value (PC12-HS cells [4]; PC12-HS cells)?
A: 5,000 ng/ml

Q: And the “Survibal percentage … (%) Hydrogen peroxide” value (PC12-HS cells [4]; PC12-HS cells, 200 μM hydrogen peroxide, 2 hours, NK-4 5 ng/ml)?
A: 51%

Q: And the “increment of intracellular cyclic adenosine monophosphate (AMP)” value [5]?
A: inducing the increment of intracellular cyclic adenosine monophosphate (AMP)

Q: What about the “Passive avoidance reaction” value (APP Tg mouse [6]; dose 100 μg/kg body weight) of the same compound?
A: 280 ± 20 s

Q: What about the “Passive avoidance reaction” value (APP Tg mouse [6]; dose 500 μg/kg body weight) of the same compound?
A: 243 ± 25 s

Q: And the “passive avoidance test (in words)” value (APP Tg mouse [6]; [10])?
A: improved the dementia

Q: What about the “Water maze test 1st day” value (APP Tg mouse [7]; dose 100 μg/kg body weight) of the same compound?
A: 101 ± 38

Q: And the “Water maze test 2nd day” value (APP Tg mouse [7]; dose 100 μg/kg body weight)?
A: 73 ± 13

Q: What about the “Water maze test 3rd day” value (APP Tg mouse [7]; dose 100 μg/kg body weight) of the same compound?
A: 59 ± 10

Q: And the “Water maze test 4th day” value (APP Tg mouse [7]; dose 100 μg/kg body weight)?
A: 34 ± 10

Q: What about the “Water maze test 1st day” value (APP Tg mouse [7]; dose 500 μg/kg body weight) of the same compound?
A: 116 ± 3

Q: What about the “Water maze test 2nd day” value (APP Tg mouse [7]; dose 500 μg/kg body weight) of the same compound?
A: 63 ± 12

Q: What about the “Water maze test 3rd day” value (APP Tg mouse [7]; dose 500 μg/kg body weight) of the same compound?
A: 40 ± 7

Q: And the “Water maze test 4th day” value (APP Tg mouse [7]; dose 500 μg/kg body weight)?
A: 27 ± 7

Q: What about the “water maze test (in words)” value (APP Tg mouse [7]; [10]) of the same compound?
A: improved the dementia

Q: What about the “Concentration of glutamic acid in cerebrospinal fluid” value (shortened to “Concentration of glutamic acid”) ([8]; 20 μg/kg body weight) of the same compound?
A: 7.2 ± 0.8 µM

Q: What about the “Concentration of glutamic acid” value ([8]; 100 μg/kg body weight) of the same compound?
A: 8.7 ± 2.6 µM

Q: And the “Concentration of glutamic acid” value ([8]; 500 μg/kg body weight)?
A: 9.5 ± 2.9 µM

Q: What about the “Cerebellar volume (mm^3)” value ([9]; 20 μg/kg body weight) of the same compound?
A: 76.0 ± 8.2* mm^3

Q: What about the “Number of Purkinje cells (cells)” value ([9]; 20 μg/kg body weight) of the same compound?
A: 187 ± 37 cells

Q: What about the “Number of granular cells (cells/20000 μm^2)” value (from here on “Number of granular cells”) ([9]; 20 μg/kg body weight) of the same compound?
A: 408 ± 8 cells/20000 μm^2

Q: What about the “Cerebellar volume (mm^3)” value ([9]; 100 μg/kg body weight) of the same compound?
A: 77.0 ± 2.8* mm^3

Q: What about the “Number of Purkinje cells (cells)” value ([9]; 100 μg/kg body weight) of the same compound?
A: 252 ± 29 cells

Q: What about the “Number of granular cells” value ([9]; 100 μg/kg body weight) of the same compound?
A: 419 ± 6 cells/20000 μm^2

Q: And the “Cerebellar volume (mm^3)” value ([9]; 500 μg/kg body weight)?
A: 80.5 ± 10.8* mm^3

Q: And the “Number of Purkinje cells (cells)” value ([9]; 500 μg/kg body weight)?
A: 231 ± 41 cells

Q: And the “Number of granular cells” value ([9]; 500 μg/kg body weight)?
A: 436 ± 7 cells/20000 μm^2

Q: And the “Number of subject (head) with apparent demyelination in cerebellar white matter” value (shortened to “Number of subject (head)”) ([9]; 20 μg/kg body weight)?
A: 4 head

Q: And the “Number of subject (head)” value ([9]; 100 μg/kg body weight)?
A: 1 head

Q: And the “Number of subject (head)” value ([9]; 500 μg/kg body weight)?
A: 0 head
